T1: DehI (Pseudomonas putida, UniProt Q8GJ84)
T1 construct: domains 1-130 and 166-296, linker 131-165
T1 sequence (Q8GJ84 1-296): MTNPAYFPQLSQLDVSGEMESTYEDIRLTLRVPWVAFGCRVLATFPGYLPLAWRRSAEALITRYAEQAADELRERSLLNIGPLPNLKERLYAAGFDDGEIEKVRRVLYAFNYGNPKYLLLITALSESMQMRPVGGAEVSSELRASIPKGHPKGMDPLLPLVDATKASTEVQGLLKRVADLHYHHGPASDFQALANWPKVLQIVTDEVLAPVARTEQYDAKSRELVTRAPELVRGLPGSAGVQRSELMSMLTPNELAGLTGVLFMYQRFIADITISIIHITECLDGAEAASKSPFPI

B1: DehI, α-haloacid dehalogenase from Pseudomonas putida strain PP3 (enzyme)
chain: T1 sequence (Q8GJ84 1-296)
notes: DehI, α-haloacid dehalogenase, Pseudomonas putida strain PP3; No tag cleavage is described; The theoretical MW of the homodimer is printed as 69.9 kDa, which may include the tag (surmise); also called wt; source: E. coli BL21 (DE3), purified (HisTrap HP, Superdex 200 SEC)

What was measured:
DehI = target: T1, DehI; assay: colorimetric phenol red dehalogenase assay, absorbance at […] nm; format: biochemical; conditions: 10 mM substrate, 10 uM enzyme, 50 mM HEPES pH 8.2, 20 mM Na2SO4, 1 mM EDTA, room temperature overnight
[1] = target: the molecule itself; assay: SEC-MALS; DehI in solution, mono-dispersed major elution peak; buffer A (20 mM potassium phosphate pH 8, 300 mM NaCl) unless stated otherwise; observed MW compared with the theoretical MW of the homodimer

| Molecule | colorimetric phenol red dehalogenase assay, absorbance at 559 nm (DehI) | stoichiometry N [1] |
| --- | --- | --- |
| CC(Cl)C(=O)O (centres unmarked) [2-chloropropionic acid] | 2-chloropropionic acid was used as the substrate of DehI |  |
| B1 |  | 2 |

Reference: publication PMC4985754, “Folding analysis of the most complex Stevedore’s protein knot” (Scientific Reports, 2016)
